Results: PMC10816934, “Targeting the Melanocortin 1 Receptor in Melanoma: Biological Activity of α-MSH–Peptide Conjugates” (International Journal of Molecular Sciences, 2024)

Legend:
[1] = system: B16 murine melanoma cell line; assay: In vitro antiproliferative activity, MTT assay; format: cell-based, mouse; settings: for IC50: MTT assay, 0.8–100 μM in serum-free medium 24 h, then 48 h culture, mean ± SD of two or three independent experiments; for Relative Potency: ratio of IC50 values of free Dau and conjugate
Text: (§1) The following cell cultures were used for the biological evaluation of the synthetic melanoma-specific peptide–drug (Dau–α-MSH) conjugates: A2058 (human skin melanoma, CVCL_1059), M24 (human metastatic skin melanoma, CVCL_D032), OCM-1 (human ocular choroidal melanoma-1, CVCL_6934), OCM-3 (human ocular choroidal melanoma-3, CVCL_6937), WM983A (human metastatic skin melanoma, CVCL_6808), WM983B (human metastatic skin melanoma CVCL_6809), SK-MEL-202 (human skin melanoma, ATCC HTB-68) and B16 (mouse melanoma, ATCC: CRL-6475). Cells were maintained in RPMI-1640 (Lonza, Basel, Switzerland), supplied with 10% FBS (fetal bovine serum; BioSera, Nuaille, France), L-glutamine, and 1% penicillin–streptomycin (from 10 000 units penicillin and 10 mg streptomycin/mL, Gibco, Dublin, Ireland) at 37 °C in a 5% CO2 atmosphere. No mycoplasma contamination was detected in the cell cultures.
(§2) The in vitro cytostatic effect of Dau–α-MSH conjugates was determined by two different assays. The full-length Dau–α-MSH conjugates were investigated by MTT assay using human and murine melanoma cell cultures. For determination of the cytostatic effect of these conjugates, the cells were treated with the compounds at 0.8–100 μM concentration range dissolved in the corresponding serum-free media for 24 h. After incubation, the treating solutions were removed, the cells were washed two times with serum-free medium and cultured for 48 h in the appropriate serum-containing cell culture medium. On the fourth day, the MTT assay was carried out to determine the IC50 values of the compounds. IC50 is the concentration that inhibits cell proliferation by 50%. Nonlinear regression analysis was performed with Prism 6 software (GraphPad, La Jolla, CA, USA) to generate sigmoidal dose–response curves, from which the 50% inhibitory concentration (IC50) values of the compounds were calculated and presented as micromolar (µM) units. The experiments were done in triplicate, and each experiment was repeated twice.

[2] = system: A2058 human melanoma cell line; assay: In vitro antiproliferative activity, MTT assay; format: cell-based; settings: for IC50: MTT assay, 0.8–100 μM in serum-free medium 24 h, then 48 h culture, mean ± SD of two or three independent experiments; for Relative Potency: ratio of IC50 values of free Dau and conjugate
Text: as §1, §2

[3] = system: M24 human melanoma cell line; assay: In vitro antiproliferative activity, MTT assay; format: cell-based; settings: for IC50: MTT assay, 0.8–100 μM in serum-free medium 24 h, then 48 h culture, mean ± SD of two or three independent experiments; for Relative Potency: ratio of IC50 values of free Dau and conjugate
Text: as §1, §2

[4] = system: WM983B human melanoma cell line; assay: In vitro antiproliferative activity, MTT assay; format: cell-based; settings: for IC50: MTT assay, 0.8–100 μM in serum-free medium 24 h, then 48 h culture, mean ± SD of two or three independent experiments; for Relative Potency: ratio of IC50 values of free Dau and conjugate
Text: as §1, §2

[5] = system: subcutaneous B16 murine melanoma in C57BL/6 male mice; assay: In vivo antitumor effect, subcutaneous B16 melanoma allograft; settings: for Increase of animal bodyweight at the end of the experiment in comparison to the start: conjugates 10 mg Dau content/kg i.p. days 9, 13, 15, 17, free Dau 1 mg/kg days 9, 17; for Tumor growth inhibition based on tumor weight, in comparison to the control group / Animal body weight (Table S1) / Tumor weigh in % (Table S1) / Tumor volume in % (Table S1) / Tumor volume in mm3 (Table S1): conjugates 10 mg Dau content/kg; for Tumor growth inhibition based on tumor weight, in comparison to the control group / Tumor volume in percentage (start set as 100%) increased in comparison to the control group: free Dau 1 mg/kg i.p.; for Animal body weight (Table S1): change at end compared to start; for Animal body weight (Table S1) / Tumor weigh in % (Table S1): minus = decrease; for Tumor weigh in % (Table S1) / Tumor volume in % (Table S1) / Tumor volume in mm3 (Table S1): change compared to control group; for Tumor volume in % (Table S1) / Tumor volume in mm3 (Table S1): minus = inhibition; for Tumor volume in percentage (start set as 100%) increased in comparison to the control group: end of experiment, Conj1 10 mg Dau content/kg
Protocol: In the first experiment, B16 murine melanoma cells were subcutaneously (s.c.) injected into side of the latero-abdominal region of 35 C57BL/6 male mice (20–28 g), which murine strain is syngeneic for the B16 melanoma tumor cell line [59, 60], 6.5 ×·10^5 cells in a volume of 200 µL M199 medium was inoculated per animal. Mice were randomized in a stratified procedure considering two main factors. The primary factor was to obtain groups with the most equal tumor sizes, the secondary factor was to have groups in which the weight of mice are the most equal. The treatment started 9 days after cell inoculation when average tumor volume was 30 mm^3. Compounds were dissolved in saline solution (Teva, Debrecen, Hungary), and administered via i.p. injection in a volume of 0.1 mL per 10 g of bodyweight. […] Animal weight and tumor volumes were measured initially when the treatment started and at periodic intervals following treatment. A digital caliper was used to measure the longest (a) and the shortest diameter (b) of a given tumor. The tumor volume was calculated using the formula V = ab^2 × π/6, whereby a and b represent the measured parameters (length and width). Termination of the experiment was 20 days after cell inoculation, i.e., 12 days after treatment started, since the average volume of the tumors in the control group reached over 1800 mm^3. The mice from all groups were sacrificed by cervical dislocation after which their tumors were harvested and weighed for antitumor effect assessment. Antitumor effect of treatments was evaluated measuring the tumor volume and calculating the percentage of how much the tumor volume grew in comparison to the starting tumor volume which was set arbitrarily for all tumors as 100% at the start of treatment.

OCM-1 cells = assay: In vitro cytostatic effect, PrestoBlue assay; format: cell-based, human; settings: Homo sapiens; OCM-1; PrestoBlue; 0.003–200 μM in serum-free medium 72 h; mean ± SEM of three independent experiments
Text: as §1
(§3) The in vitro cytostatic effect of the Dau–α-MSH conjugate with optimized sequence (Conj4) was investigated and compared with Conj2 by PrestoBlue assay using human melanoma cell cultures with different origins. For determination of the cytostatic effect of the conjugates, the cells were treated with the compounds at 0.003–200 μM concentration range dissolved in the corresponding serum-free medium for 72 h. After the treatment, the PrestoBlue assay (purchased from Invitrogen (Waltham, MA, USA) was carried out to determine the IC50 values of the compounds. Based on the IC50 values, we also determined the targeting index (TI) of the conjugates using the following equation [58]: TI=IC50neg/IC50posconjugate/IC50neg/IC50posfree drug

OCM-3 cells = assay: In vitro cytostatic effect, PrestoBlue assay; format: cell-based, human; settings: Homo sapiens; OCM-3; PrestoBlue; 0.003–200 μM in serum-free medium 72 h; mean ± SEM of three independent experiments
Text: as §1, §3

WM983A cells = assay: In vitro cytostatic effect, PrestoBlue assay; format: cell-based, human; settings: Homo sapiens; WM983A; PrestoBlue; 0.003–200 μM in serum-free medium 72 h; mean ± SEM of three independent experiments
Text: as §1, §3

WM983B cells = assay: In vitro cytostatic effect, PrestoBlue assay; format: cell-based, human; settings: Homo sapiens; WM983B; PrestoBlue; 0.003–200 μM in serum-free medium 72 h; mean ± SEM of three independent experiments
Text: as §1, §3

[6] = system: OCM-1 human uveal melanoma tumor in male NOD-SCID mice; assay: In vivo tumor growth inhibition, OCM-1 xenograft; set-up: species or system mouse
Protocol: In the next experiment, the murine xenograft melanoma model establishment studies were performed using 8–12-week-old male NOD-SCID mice. For selection of the most suitable tumor model, three cell lines were then inoculated subcutaneously, OCM-1, SK-MEL-202, and WM983A. Cells were injected in a 0.1 mL RPMI-1640 basic medium in a concentration of 1.5·× 10^6 cells/mL, and the tumor growth and weight of mice were monitored 2–3 times per week. Subsequently, the antitumor effects of the Dau–α-MSH conjugates were determined in a mouse xenograft melanoma model selected as described above. Once the tumor volume reached 60 mm^3, mice were randomized and assigned to different groups for each treatment: 0.9% saline as a control, free daunomycin, Conj2 and Conj4. Treatments were injected intraperitoneally every fifth day, three times in total (daunomycin dosage of 5 mg/kg in case of Conj2, 10 mg/kg for Conj4, respectively, which was determined based on the toxicity tests, and 1 mg/kg were used for free drug–MTD). The weight and tumor size of mice were monitored during the whole experiment. On Day 33, mice were euthanized, and the primary tumor, heart, lung, liver, and spleen were harvested and stored in 4% formalin (Molar Chemicals, Halásztelek, Hungary). Liver weight was measured for the calculation of the toxicity of conjugates and daunomycin.

[7] = free drug 1 mg/kg i.p., group terminated on day 28

Structure (SMILES) | IC50 [1] [nM] | Relative Potency [1] | IC50 [2] [nM] | Relative Potency [2] | IC50 [3] [nM] | Relative Potency [3] | IC50 [4] [nM] | Relative Potency [4] | Increase of animal bodyweight at the end of the experiment in comparison to the start ([5]; B16-bearing C57BL/6 mice) [%] | Tumor growth inhibition based on tumor weight, in comparison to the control group ([5]; after termination (day 20)) [%] | Animal body weight (Table S1) ([5]; free Dau 1 mg/kg) | Tumor weigh in % (Table S1) ([5]; free Dau 1 mg/kg) | Tumor volume in % (Table S1) ([5]; free Dau 1 mg/kg) | Tumor volume in mm3 (Table S1) ([5]; free Dau 1 mg/kg) | Tumor volume in percentage (start set as 100%) increased in comparison to the control group [5] [%] | also measured
CCCC[C@H](NC(=O)[C@H](CO)NC(=O)[C@H](Cc1ccc(O)cc1)NC(=O)[C@H](CO)NC(=O)CON=C(C)[C@]1(O)Cc2c(O)c3c(c(O)c2[C@@H](O[C@H]2C[C@H](N)[C@H](O)[C@H](C)O2)C1)C(=O)c1c(OC)cccc1C3=O)C(=O)N[C@@H](CCC(=O)O)C(=O)N[C@@H](Cc1c[nH]cn1)C(=O)N[C@@H](Cc1ccccc1)C(=O)N[C@@H](CCCNC(=N)N)C(=O)N[C@@H](Cc1c[nH]c2ccccc12)C(=O)NCC(=O)N[C@@H](CCCCN)C(=O)N1CCC[C@H]1C(=O)N[C@H](C(N)=O)C(C)C [Conj1, Dau=Aoa-SYSNleEHFRWGKPV-NH2] | 2900 ± 600 | 0.0090 | 9800 ± 5400 | 0.0041 | 12800 ± 1600 | 0.0093 | 9900 ± 1500 | 0.0050 | 12.9 | 2.4 | +12.9% | -2.4% | +9.7% | -23.8% | 9.7 | 
CCCC[C@H](NC(=O)[C@H](CO)NC(=O)[C@H](Cc1ccc(O)cc1)NC(=O)[C@H](CO)NC(=O)CON=C(C)[C@]1(O)Cc2c(O)c3c(c(O)c2[C@@H](O[C@H]2C[C@H](N)[C@H](O)[C@H](C)O2)C1)C(=O)c1c(OC)cccc1C3=O)C(=O)N[C@@H](CCC(=O)O)C(=O)N[C@@H](Cc1c[nH]cn1)C(=O)N[C@@H](Cc1ccccc1)C(=O)N[C@@H](CCCNC(=N)N)C(=O)N[C@@H](Cc1c[nH]c2ccccc12)C(=O)NCC(=O)N[C@@H](CCCCNC(=O)CON=C(C)[C@]1(O)Cc2c(O)c3c(c(O)c2[C@@H](O[C@H]2C[C@H](N)[C@H](O)[C@H](C)O2)C1)C(=O)c1c(OC)cccc1C3=O)C(=O)N1CCC[C@H]1C(=O)N[C@H](C(N)=O)C(C)C [Conj3, Dau=Aoa-SYSNleEHFRWGK(Dau=Aoa)PV-NH2] | 2000 ± 700 | 0.0130 | 3000 ± 800 | 0.0133 | 11000 ± 800 | 0.0108 | 3600 ± 200 | 0.0138 | 18.2 |  | +18.2% | +9.2% | -14.7% | +12.3% |  | Tumor weight increased in comparison to the control ([5]; after termination (day 20), 10 mg Dau content/kg i.p.): 9.2%; Average tumor volume (mm^3) higher compared to the control group ([5]; end of experiment (day 20), 10 mg Dau content/kg i.p.): 12.3%
COc1cccc2c1C(=O)c1c(O)c3c(c(O)c1C2=O)C[C@@](O)(C(C)=O)C[C@@H]3O[C@H]1C[C@H](N)[C@H](O)[C@H](C)O1 [Dau, daunomycin, reference compound] |  |  |  |  |  |  |  |  | 7.6 | 17 | +7.6% | -17.0% | +58.8% | -4.9% | 58.8 | IC50 ([1]; Mus musculus): 26 ± 8 nM; IC50 ([2]; Homo sapiens): 40 ± 7 nM; IC50 ([3]; Homo sapiens): 119 ± 25 nM; IC50 ([4]; Homo sapiens): 50 ± 23 nM; IC50 (OCM-1 cells): 730 ± 60 nM; IC50 (OCM-3 cells): 560 ± 50 nM; IC50 (WM983A cells): 190 ± 60 nM; IC50 (WM983B cells): 330 ± 50 nM; Liver weight compared to the control ([6]; OCM-1-bearing NOD-SCID mice, Conj2 5 mg/kg, Conj4 10 mg/kg, daunomycin 1 mg/kg i.p., no significant toxicity): 89.79%; Normalized liver weight, value line 1 ([6]; Table S2, single animal, line 1): 4.05%; Normalized liver weight, value line 2 ([6]; Table S2, single animal, line 2): 4.31%; Normalized liver weight, value line 4 ([6]; Table S2, single animal, line 4): 4.81%; Normalized liver weight, value line 5 ([6]; Table S2, single animal, line 5): 4.07%; Normalized liver weight, value line 6 ([6]; Table S2, single animal, line 6): 4.07%; Normalized liver weight, value line 7 ([6]; Table S2, single animal, line 7): 5.29%; Normalized liver weight, line printed as "relative to ctr" ([6]; Table S2, value line 9): 5.00%; Toxicity (general condition of mice) [6, 7]: high toxicity; Tumor inhibition compared to the controls [6, 7]: lack of tumor inhibition; Tumor growth inhibition based on tumor volume in mm^3, compared to control ([5]; end of experiment (day 20), conjugates 10 mg Dau content/kg i.p., free Dau 1 mg/kg): 4.9%; Animals died during the experiment ([5]; seven animals per group, B16-bearing C57BL/6 mice): 3 animals
